From US20240374573A1, “IMIDAZOLE CONTAINING COMPOUNDS, DERIVATIVES THEREFORE, AND USES THEREOF” (AglaeaPharma Inc., priority 2023, published 2024)

Experiments:
brain proteins = assay: in vitro
Method: The initial preparation of the dialysis membrane involved thawing brain homogenate in a water bath at room temperature and subsequently heating it at 37° C. for 10 minutes. The dialysis setup utilized was from HT Dialysis LLC, featuring a HT-Dialysis plate (Model HTD 96 b) and a dialysis membrane with a molecular weight cutoff of 12-14 kDa.
The membrane underwent a comprehensive pretreatment which included hydration in ultra-pure water at room temperature for approximately one hour. This was followed by separation and immersion in a 20:80 ethanol:water solution for about 20 minutes. After this treatment, the membranes were either used immediately or stored at 2-8° C. for up to one month, with a final rinse in ultra-pure water prior to experimental use.
For compound preparation, test and control substances were first dissolved to create 400 μM working solutions by mixing 4 μL of stock solution with 96 μL of DMSO. These working solutions were then further diluted to 2 μM in a blank matrix by combining 3 μL of the prepared solution with 597 μL of matrix, ensuring thorough mixing.
During the assay, 50 μL aliquots of the 2 μM compound-matrix mixture were dispensed in triplicate into a Sample Collection Plate. Each aliquot was paired with an equal volume of blank PBS to standardize the total volume to 100 μL per well at a 1:1 matrix to PBS ratio. A stop solution comprising 500 μL of acetonitrile with tolbutamide and labetalol at 250 nM each was added to stabilize the samples at TO. The samples were then shaken at 800 rpm for 10 minutes and stored at 2-8° C.
The dialysis procedure included assembling the dialysis device according to the manufacturer's specifications, loading the matrix aliquots into the donor side of the dialysis wells, and conducting the dialysis under a humidified atmosphere with 5% CO2 at 37° C. for 4 hours.
Post-dialysis, 50 μL samples were collected from both the receiver and donor sides into new 96-well plates. Volumes were adjusted to 100 μL by adding an equivalent amount of the opposite blank matrix or PBS. The samples were prepared for LC-MS/MS analysis after thorough vertexing and centrifugation. Blank control samples were prepared and processed similarly to mirror the test conditions.
Data analysis involved calculating the percentages of undiluted unbound and bound fractions, and recovery of the compounds.

[1] = molecular target: T1, α2AAR (α2A-adrenergic receptor) (Homo sapiens, UniProt P08913); assay: α2AAR FLIPR assay (agonist activity); type: cell-based; settings: FLIPR, α2AAR cell line hosted in HEK293 cells; read-out: α2A agonist activity (EC50)
T1 construct: expressed in transfected cells; host or cells: HEK293
T1 sequence (P08913 1-465): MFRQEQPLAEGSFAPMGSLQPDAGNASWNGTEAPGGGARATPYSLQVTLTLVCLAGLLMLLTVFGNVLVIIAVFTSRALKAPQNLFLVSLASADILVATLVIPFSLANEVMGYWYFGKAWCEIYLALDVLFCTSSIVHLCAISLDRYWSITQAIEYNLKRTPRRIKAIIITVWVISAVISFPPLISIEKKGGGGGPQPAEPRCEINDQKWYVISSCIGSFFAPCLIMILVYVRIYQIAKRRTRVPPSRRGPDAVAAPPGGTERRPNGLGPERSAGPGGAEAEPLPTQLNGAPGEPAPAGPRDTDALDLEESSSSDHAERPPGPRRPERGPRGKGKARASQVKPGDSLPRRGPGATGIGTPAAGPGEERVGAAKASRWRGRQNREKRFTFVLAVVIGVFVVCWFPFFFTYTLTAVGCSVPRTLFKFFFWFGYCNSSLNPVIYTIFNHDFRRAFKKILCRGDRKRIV
Procedure, shortened: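 HEK293 cells expressing α2AAR loaded with Fluo-4 Direct plus probenecid for 50 min at 37° C and 10 min at room temperature, then treated with serially diluted compounds.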

α2AAR = molecular target: T2, α2AAR (Homo sapiens, UniProt P08913); assay: α2AAR binding assay ([3H]-RX 821002 radioligand); settings: [3H]-RX 821002 0.5 nM, HEK293 membranes; read-out: α2A affinity (Ki)
T2 construct: host or cells: HEK293 (membranes)
T2 sequence (P08913 1-465): T1 sequence (P08913 1-465)

[2] = molecular target: P-glycoprotein (P-gp, MDR1) (Homo sapiens, UniProt P08183); assay: in vitro; settings: dog, MDCK-MDR1, pH 7.4
Method: MDR1-MDCK II cells (obtained from Piet Borst at the Netherlands Cancer Institute) were seeded onto Polycarbonate membranes (PC) in 96-well insert systems at 3.33×10^5 cells/mL until to 4-7 days for confluent cell monolayer formation.
Selected α2AR agonist from table 3s were diluted with the transport buffer (HBSS with 10.0 mM Hepes, pH7.4) from DMSO stock solution to a concentration of 2 μM (DMSO<1%) and applied to the apical or basolateral side of the cell monolayer. […] Permeation of the test compounds from A to B direction and/or B to A direction was determined in duplicate. Digoxin was tested at 10.0 μM from A to B direction and B to A direction in duplicate. The plate was incubated for 2.5 hours in CO2 incubator at 37.0±1.0° C., with 5.0% CO2 at saturated humidity without shaking. In addition, the efflux ratio of each compound was also determined. Test and reference compounds were quantified by LC/MS/MS analysis based on the peak area ratio of analyte/IS.
After transport assay, lucifer yellow rejection assay was applied to determine the cell monolayer integrity. Buffers were removed from both apical and basolateral chambers, followed by the addition of 75 μL of 100 μM lucifer yellow in transport buffer and 250 μL transport buffer in apical and basolateral chambers, respectively. The plate was incubated for 30 minutes at 37.0° C. with 5.0% CO2 and 95.0% relative humidity without shaking. After 30 minutes incubation, 20 μL of lucifer yellow samples were taken from the apical sides, followed by the addition of 60 μL of transport Buffer. And then 80 μL of lucifer yellow samples were taken from the basolateral sides. The relative fluorescence unit (RFU) of lucifer yellow was measured at 425/528 nm (excitation/emission) with an Envision plate reader.
The apparent permeability coefficient Papp (cm/s) was calculated using the equation: […]
wherein dCr/dt is the cumulative concentration of compound in the receiver chamber as a function of time (μM/s); Vr is the solution volume in the receiver chamber (0.075 mL on the apical side, 0.25 mL on the basolateral side); A is the surface area for the transport, i.e. 0.143 cm2 for the area of the monolayer; and C0 is the initial concentration in the donor chamber (μM).
The efflux ratio was calculated using the equation: […]

P-glycoprotein (P-gp, MDR1), sequence (P08183 whole entry): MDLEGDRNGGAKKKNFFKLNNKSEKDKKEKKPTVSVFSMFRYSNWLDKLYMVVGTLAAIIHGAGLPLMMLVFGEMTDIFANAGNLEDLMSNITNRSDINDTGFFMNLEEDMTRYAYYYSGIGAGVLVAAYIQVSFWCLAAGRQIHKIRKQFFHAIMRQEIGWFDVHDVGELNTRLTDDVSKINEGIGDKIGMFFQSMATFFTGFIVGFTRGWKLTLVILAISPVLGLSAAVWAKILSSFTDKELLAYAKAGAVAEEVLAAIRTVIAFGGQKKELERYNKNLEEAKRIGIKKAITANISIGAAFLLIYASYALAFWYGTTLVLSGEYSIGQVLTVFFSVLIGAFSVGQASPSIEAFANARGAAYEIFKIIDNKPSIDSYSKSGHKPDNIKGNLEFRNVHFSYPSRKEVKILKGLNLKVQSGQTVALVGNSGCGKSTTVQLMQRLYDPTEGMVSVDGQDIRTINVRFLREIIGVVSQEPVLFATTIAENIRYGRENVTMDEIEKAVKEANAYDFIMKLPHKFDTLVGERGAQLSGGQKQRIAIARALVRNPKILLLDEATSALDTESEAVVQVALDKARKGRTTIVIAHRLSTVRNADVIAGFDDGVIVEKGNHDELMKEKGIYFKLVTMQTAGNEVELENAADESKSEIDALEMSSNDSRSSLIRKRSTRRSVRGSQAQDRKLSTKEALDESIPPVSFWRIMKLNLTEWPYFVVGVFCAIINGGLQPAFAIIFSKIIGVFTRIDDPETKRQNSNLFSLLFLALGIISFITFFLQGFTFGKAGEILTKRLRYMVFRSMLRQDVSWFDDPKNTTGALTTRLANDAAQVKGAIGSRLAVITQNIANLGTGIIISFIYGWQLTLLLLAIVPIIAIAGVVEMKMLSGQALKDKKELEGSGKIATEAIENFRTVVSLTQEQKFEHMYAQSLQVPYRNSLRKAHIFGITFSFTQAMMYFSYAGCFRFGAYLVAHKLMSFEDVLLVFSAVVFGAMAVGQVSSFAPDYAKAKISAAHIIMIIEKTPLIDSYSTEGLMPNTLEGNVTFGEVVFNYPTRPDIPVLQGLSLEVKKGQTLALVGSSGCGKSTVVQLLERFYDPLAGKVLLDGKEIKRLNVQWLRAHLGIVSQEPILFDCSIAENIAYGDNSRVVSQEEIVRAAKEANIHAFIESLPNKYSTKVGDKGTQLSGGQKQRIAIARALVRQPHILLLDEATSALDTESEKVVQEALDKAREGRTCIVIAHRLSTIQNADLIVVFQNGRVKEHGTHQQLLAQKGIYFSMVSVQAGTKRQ

Row | recovery at 4 h, 2 μM (brain proteins) | % Undiluted Bound (n = 3) (brain proteins; 4 h, 2 μM) | % Undiluted Unbound (n = 3) (brain proteins; brain homogenate, 4 h, 2 μM) | EC50 [1] | Ki (α2AAR) | efflux ratio at 2.5 h, 2 μM [2] | SMILES
1 | 109% | 97.4% | 2.6% |  |  |  | CC(C)NCC(O)COc1cccc2ccccc12 (stereo not drawn) [Propranolol, propranolol]
2 |  |  |  | 10 to 50 nM | < 10 nM | 62.5 | Cc1cccc(C(c2cccc(NC(=O)CN3CCOCC3)c2)c2c[nH]cn2)c1C (stereo not drawn) [compound 81]
3 |  |  |  | 10 to 50 nM | < 10 nM | 102 | Cc1cccc(C(c2cccc(C(=O)NOCC3CCOC3)c2)c2c[nH]cn2)c1C (stereo not drawn) [compound 95]
4 |  |  |  | 10 to 50 nM | 10 to 50 nM | 141 | Cc1cccc(C(c2cccc(C(=O)NCC3CCC(O)CC3)c2)c2c[nH]cn2)c1C (stereo not drawn) [compound 99]
5 |  |  |  | 10 to 50 nM | 10 to 50 nM | 104 | Cc1cccc(C(c2cccc(NC(=O)CCC3CCOCC3)c2)c2c[nH]cn2)c1C (stereo not drawn) [compound 101]
6 |  |  |  | 10 to 50 nM | 10 to 50 nM | 149 | Cc1cccc(C(c2cccc(NC(=O)Cc3ccncc3)c2)c2c[nH]cn2)c1C (stereo not drawn) [compound 103]
7 |  |  |  | 10 to 50 nM | < 10 nM | 65.8 | Cc1cccc(C(c2cccc(S(=O)(=O)NCC3CCOCC3)c2)c2c[nH]cn2)c1C (stereo not drawn) [compound 105]
8 |  |  |  | 10 to 50 nM | < 10 nM | 72.2 | Cc1cccc(C(Cc2cccc(NC(=O)CC3CCOCC3)c2)c2c[nH]cn2)c1C (stereo not drawn) [compound 108]
9 |  |  |  | 10 to 50 nM | 10 to 50 nM | 94.8 | Cc1cccc(C(c2cccc(NC(=O)NC3CC3)c2)c2c[nH]cn2)c1C (stereo not drawn) [compound 109]
10 |  |  |  | 10 to 50 nM | 10 to 50 nM | 173 | Cc1cccc(C(c2cccc(NC(=O)NC3CCOCC3)c2)c2c[nH]cn2)c1C (stereo not drawn) [compound 111]
11 |  |  |  | 10 to 50 nM | < 10 nM | 58.4 | Cc1cccc(C(Cc2cccc(NS(=O)(=O)CC3CCOCC3)c2)c2c[nH]cn2)c1C (stereo not drawn) [compound 112]
12 |  |  |  | 10 to 50 nM | < 10 nM | 7.85 | Cc1cccc(C(c2c[nH]cn2)c2cccc(C(=O)NCC3CCOCC3)c2O)c1C (stereo not drawn) [compound 138]
13 |  |  |  | 50 to 250 nM | 10 to 50 nM | 2.61 | Cc1cccc(C(c2cccc(NC(=O)CC[N+](C)(C)C)c2)c2c[nH]cn2)c1C (stereo not drawn) [compound 141]
14 |  |  |  | 10 to 50 nM | < 10 nM | 23.7 | Cc1cccc(C(Cc2ccc(NS(=O)(=O)C3CCOCC3)cc2)c2c[nH]cn2)c1C (stereo not drawn) [compound 158]
15 |  |  |  | 10 to 50 nM | < 10 nM | 9.08 | Cc1cccc(C(Cc2ccc(C(N)=O)cc2)c2c[nH]cn2)c1C (stereo not drawn) [compound 163]
16 |  |  |  | < 10 nM | < 10 nM | 14.8 | Cc1cccc(C(Cc2ccc(NC(=O)CC3CCOCC3)cc2)c2c[nH]cn2)c1C (stereo not drawn) [compound 165]
17 |  |  |  | 10 to 50 nM | 10 to 50 nM | 3.38 | Cc1cccc(C(Cc2ccc(C(=O)NC3CCOCC3)nc2)c2c[nH]cn2)c1C (stereo not drawn) [compound 186]
18 |  |  |  | 10 to 50 nM | < 10 nM | 2.6 | Cc1cccc(C(Cc2ccc(C(=O)NC3CCOCC3)c(F)c2)c2c[nH]cn2)c1C (stereo not drawn) [compound 187]
19 |  |  |  | 10 to 50 nM | < 10 nM | 4.91 | CC(=O)Nc1ccc(CC(c2c[nH]cn2)c2cccc(C)c2C)cc1 (stereo not drawn) [compound 190]
20 |  |  |  | 10 to 50 nM | < 10 nM | 27.7 | Cc1cccc(C(Cc2ccc(NC(=O)C3COC3)cc2)c2c[nH]cn2)c1C (stereo not drawn) [compound 200]
21 |  |  |  | 10 to 50 nM | < 10 nM | 61.8 | Cc1cccc(C(Cc2ccc(NC(=O)NC3CCOCC3)cc2)c2c[nH]cn2)c1C (stereo not drawn) [compound 205]
22 |  |  |  | < 10 nM | < 10 nM | 8.88 | Cc1cccc(C(Cc2ccc(S(N)(=O)=O)c(F)c2)c2c[nH]cn2)c1C (stereo not drawn) [compound 208]
23 |  |  |  | < 10 nM | < 10 nM | 4.92 | COc1cc(CC(c2c[nH]cn2)c2cccc(C)c2C)ccc1C(=O)NC1CCOCC1 (stereo not drawn) [compound 213]
24 |  |  |  | 10 to 50 nM | < 10 nM | 56.1 | Cc1cccc(C(Cc2ccc(NC(=O)NC3COC3)cc2)c2c[nH]cn2)c1C (stereo not drawn) [compound 214]
25 |  |  |  | < 10 nM | < 10 nM | 4.77 | CNC(=O)c1ccc(CC(c2c[nH]cn2)c2cccc(C)c2C)cc1 (stereo not drawn) [compound 215]
26 |  |  |  | < 10 nM | < 10 nM | 3.21 | Cc1cccc(C(Cc2ccc(C(=O)N(C)C)cc2)c2c[nH]cn2)c1C (stereo not drawn) [compound 216]
27 |  |  |  | < 10 nM | < 10 nM | 17.5 | Cc1cccc(C(Cc2ccc(S(N)(=O)=O)cc2)c2c[nH]cn2)c1C (stereo not drawn) [compound 217]
28 |  |  |  | < 10 nM | < 10 nM | 26.9 | Cc1cccc(C(Cc2ccc(C(=O)NO)cc2)c2c[nH]cn2)c1C (stereo not drawn) [compound 219]
29 |  |  |  | 10 to 50 nM | < 10 nM | 22 | CCc1cscc1C(c1cccc(NS(C)(=O)=O)c1)c1c[nH]cn1 (stereo not drawn) [compound 401]
